The subject of data set [1] is P. berghei transmission from mice to Anopheles gambiae mosquitoes. Put plainly: in vivo transmission-blocking assay. Particulars: 100 mg kg−1 i.p. daily, three doses; 4 days post passage. Further details: species or system Plasmodium berghei. As for the experimental part:
We further tested the activity of compound 1o on parasite transmission from mice to Anopheles gambiae mosquitoes. For this, P. berghei-infected mice received a daily injection of compound 1o for 3 days starting 24 h post passage and were exposed to mosquito bites 24 h after each injection. Tween 80 (Tw80) and methylene blue (MB) served as negative and positive controls, respectively. As with MB, compound 1o limited parasite multiplication in mice, albeit to a lesser extent (Fig. 3a). […]
Figure 3 Effect of compound 1o on P. berghei multiplication in mice and on parasite transmission to mosquitoes. […] Parasitemia was monitored daily and the mean± s.d. of three independent experiments are plotted. […] (b) Prevalence (percentage of infected mosquitoes) and (c) infection intensity (mean number of parasites per infected midgut) were determined 7 days post infectious blood feeding. […] Significance for differences between treatments was calculated using generalized linear models with treatment, time, and repeats as variables, ***P value <0.001 (a–c). n, number of mosquitoes. […] Survival of treated gametocytes was calculated for each concentration relative to parasites exposed to vehicle. […]
Parasitaemia was determined daily via FACS analysis (FACSCalibur, BD Bioscience). […]

Data set [2] deals with P. berghei asexual stages. Kind of data set: ex vivo drug assay (luciferase), asexual stages. The format is cell-based. Particulars: Plasmodium berghei, 24 h, read-out: IC50 against P. berghei ex vivo. As for the experimental part: Plates frozen at −80 °C were thawed at 37 °C. The cells were lysed at room temperature in 10 μl 1x luciferin lysis buffer (Luciferase Cell Culture Lysis 5 × reagent, Promega), and 100 μl luciferase assay substrate was added to each well (Luciferase Assay System, Promega). Luciferase activity was measured on a luminescence plate reader (Mithras LB940 luminometer, Berthold Technologies). The mean of the luciferase activity was calculated for each technical triplicate and normalized as follows: (Lucx−LucRBC)/(Lucsolvent−LucRBC) with Lucx and Lucsolvent=mean luciferase activity for parasites incubated with compound x and with solvent (DMSO for 1o and PBS for MB), respectively, and LucRBC=mean luciferase activity of non-infected red blood cells (background). IC50 values were calculated using Prism (GraphPad, log(inhibitor) versus normalized response—variable slope) in three independent experiments for the P. falciparum gametocyte assay and five for the P. berghei ex vivo drug assay.
The animal experiments described in this part were performed at the Institut de Biologie Moléculaire et Cellulaire (Strasbourg, France), using facilities and protocols adhering to national regulations of laboratory animal welfare in France. […] Parasitaemia was monitored via FACS analysis (FACSCalibur, BD Bioscience). […]

Data set [3] is described as follows: aqueous kinetic solubility. Type of data set: physicochemical. Conditions: kinetic from dmso stock. Here is the method: Pharmacokinetic data were obtained for compound 1o at the Sanford-Burnham Medical Research Institute according to established procedures. Compound solubility in an aqueous solution was measured using an automated kinetic solubility method. The concentration of the compound in a saturated pH-buffered aqueous solution was determined via UV absorbance (250–498 nm) and compared with the spectra of a precipitation-free reference solution. The plasma stability of the compound was determined at a single concentration using species-specific plasma. The percentage of parent compound remaining after 3 h was determined via LC-MS/MS. The percentage of compound 1o bound to plasma proteins was determined through rapid equilibrium dialysis and quantified via LC-MS/MS. Metabolic stability of the compound was determined at a single concentration using species-specific liver microsomes that contained cytochrome P450s, flavin-monooxygenases, carboxyl-esterases, epoxide hydrolases, and other drug-metabolizing enzymes. The quantification was carried out via LC-MS/MS. Membrane permeability of compound 1o was measured using an in vitro model for the passive transport from the gastrointestinal tract into the blood system. A double-sink parallel artificial membrane permeability assay PAMPA, in a 96-well format was employed.

Converted amounts (≈) assume the structure as drawn. Read-outs that look alike come from different tables or passages of the source.

As to `COc1ccc2c(c1)CCC1C2CC[C@@]2(C)C1CC[C@H]2NCc1cc2ccccc2cc1O` (stereo partly shown) [1o], the “parasite transmission to mosquitoes” value in data set [1] is recorded as “fully block parasite transmission to mosquitoes”. Moreover, in data set [2], the IC50 (commonly the concentration at which inhibition is half-maximal) amounted to 3.1 ± 2.4 nM. The solubility (commonly the dissolved amount per volume that the medium holds) in data set [3] (Pion's buffer, aqueous buffer, pH 5.0, read-out: Aqueous Solubility (Pion's Buffer)) was 0.26 µg/mL (≈ 0.589 µM); in data set [3] (Pion's buffer, pH 6.2, aqueous buffer, read-out: Aqueous Solubility (Pion's Buffer)), 0.38 µg/mL (≈ 0.86 µM); in data set [3] (Pion's buffer, pH 7.4, aqueous buffer, read-out: Aqueous Solubility (Pion's Buffer)), 0.3 µg/mL (≈ 0.679 µM); in data set [3] (pH-buffered aqueous solution, aqueous buffer, across a range of pH, read-out: aqueous solubility) it was below 1 µg/mL. In addition, the solubility (kinetic) (in general, the concentration staying in solution when a stock, usually in DMSO, is diluted into the medium) in data set [3] (pH-buffered aqueous solution, aqueous buffer, across a range of pH) was below 2.3 µM.

(Values after publication PMC5321741, “Arylmethylamino steroids as antiparasitic agents” (Nature Communications, 2017).)
